{"source": "patent US20190225670A1", "about": "“COMPOUNDS AND METHODS FOR ACTIVATING TIE2 SIGNALING” (ASCLEPIX THERAPEUTICS, LLC, priority 2016, published 2019)", "key": {"[1]": {"test_system": "F-actin", "test": "F-actin immunofluorescence in MEC monolayers", "format": "cell-based, human", "details": "200 ng/ml Ang2, increasing concentrations of AXT107", "protocol": "The jaggedness of these junctions is related to the structure of actin within the cell.\nGlass-bottomed, 96-well plates with half well size were coated with 10 μg/ml FN1 for two hours at 37° C. The FN1 solution was then removed by aspiration and the plate seeded with 4×10^3 MECs in EGM-2MV media. After twenty-four hours, the cells were washed once with dPBS containing Ca^2+ and Mg^2+ to remove dead cells and the cells were allowed to grow for an additional twenty-four hours. For three-hour duration treatments (i.e., VE-cadherin), cells were washed twice with dPBS containing Ca^2+ and Mg^2+ and serum starved in EBM-2 for ninety minutes. The media was then removed and the cells were treated for three hours with 100 μl of EBM-2 media containing 200 ng/ml Ang2 or PBS and varying concentrations of AXT107 or DMSO. For fifteen minute-treated samples (i.e., phospho-Tie2), the cells were serum starved in EBM-2 media for 165 minutes, incubated for ninety minutes with varying concentrations of AXT107 or DMSO in EBM-2, and finally stimulated for fifteen minutes with 200 ng/ml Ang2 or PBS supplemented with peptide to retain the same concentrations. These times were chosen so that both treatment procedures would be completed at the same time. The cells were then washed twice with cold dPBS containing Ca^2+ and Mg^2+ and fixed in 10% neutral buffered formalin for fifteen minutes. […]"}, "[2]": {"test_system": "Akt", "test": "Western blot of phospho-Akt (S473) in MEC lysates treated with Ang2 and AXT107", "format": "cell-based, human", "protocol": "A confluent monolayer of human microvascular endothelial cells (HMEC) was serum starved with EBM-2 overnight. After a 90 min treatment with AXT107 at concentrations of 0, 10, 32, and 100 μM, the cells were treated for 15 min with 1 mM sodium orthovanadate. Next the cells were treated with Angiopoietin-2 (Ang-2) at 200 ng/mL for 15 min. Following cell lysis, the lysates were immunoblotted for pTie2 (Y992), pSTAT3 (Y705), and pAkt (S473).\nFor Ang1/2 signaling investigations, cell culture dishes (10 cm diameter) were coated with 5 μg/ml fibronectin (FN1; Sigma-Aldrich, St. Louis, Mo.) for two hours at 37° C. The FN1 solution was then removed by aspiration and 5×10^6 microvascular endothelial cells (MECs; Lonza, Walkersville, Md.) were plated in EGM-2MV media (Lonza) and cultured for forty-eight hours at 37° C. […] Specific proteins were identified by Western blot, using the following primary antibodies: Cell Signaling—phospho-Tie2 (Y992) (Cat#: 4221), Tie2 (Cat#: 7403), phospho-Stat3 (Y705) (Cat#: 4113), Stat3 (Cat#: 4904), phospho-Akt (S473) (Cat#: 4058), Akt (Cat#: 9272), phospho-p44/42 MAPK (T202/Y204) (Cat#: 4370), p44/42 MAPK (Cat#: 4695); BD Transduction Laboratories—β1 integrin (Cat#: 610467); Millipore—α5 integrin (Cat#: AB1928) and detected with HRP-conjugated goat anti-rabbit and sheep anti-mouse secondary antibodies (GE healthcare)."}}, "data": [{"sequence": "LRRFSTAPFAFIDINDVINF [AXT107]", "values": [{"measurement": "actin fiber arrangement", "setting": "[1]", "result": "became more cortical"}, {"measurement": "Akt phosphorylation", "setting": "[2]", "result": "increased phosphorylation"}]}]}
